Columns and labels:
[1] = biological target: T1, human Nav 1.7 (Homo sapiens, UniProt Q15858); test: Nav 1.7 sodium channel inhibition, automated patch clamp (QPATCH II), two pulse voltage protocol; assay type: cell-based; conditions: for ranking of the compounds in terms of efficacy: Nav 1.7 inhibition at Cmax; for Mean % inhibition-closed state: closed state (P1) of Nav 1.7; for Mean % inhibition-closed state / Mean % inhibition-inactivated state: CHO cells, compound at/around Cmax concentration as in Table 4; for Mean % inhibition-inactivated state: inactivated state (P2) of Nav 1.7
T1 construct: expressed in transfected cells
T1 sequence (Q15858 whole entry): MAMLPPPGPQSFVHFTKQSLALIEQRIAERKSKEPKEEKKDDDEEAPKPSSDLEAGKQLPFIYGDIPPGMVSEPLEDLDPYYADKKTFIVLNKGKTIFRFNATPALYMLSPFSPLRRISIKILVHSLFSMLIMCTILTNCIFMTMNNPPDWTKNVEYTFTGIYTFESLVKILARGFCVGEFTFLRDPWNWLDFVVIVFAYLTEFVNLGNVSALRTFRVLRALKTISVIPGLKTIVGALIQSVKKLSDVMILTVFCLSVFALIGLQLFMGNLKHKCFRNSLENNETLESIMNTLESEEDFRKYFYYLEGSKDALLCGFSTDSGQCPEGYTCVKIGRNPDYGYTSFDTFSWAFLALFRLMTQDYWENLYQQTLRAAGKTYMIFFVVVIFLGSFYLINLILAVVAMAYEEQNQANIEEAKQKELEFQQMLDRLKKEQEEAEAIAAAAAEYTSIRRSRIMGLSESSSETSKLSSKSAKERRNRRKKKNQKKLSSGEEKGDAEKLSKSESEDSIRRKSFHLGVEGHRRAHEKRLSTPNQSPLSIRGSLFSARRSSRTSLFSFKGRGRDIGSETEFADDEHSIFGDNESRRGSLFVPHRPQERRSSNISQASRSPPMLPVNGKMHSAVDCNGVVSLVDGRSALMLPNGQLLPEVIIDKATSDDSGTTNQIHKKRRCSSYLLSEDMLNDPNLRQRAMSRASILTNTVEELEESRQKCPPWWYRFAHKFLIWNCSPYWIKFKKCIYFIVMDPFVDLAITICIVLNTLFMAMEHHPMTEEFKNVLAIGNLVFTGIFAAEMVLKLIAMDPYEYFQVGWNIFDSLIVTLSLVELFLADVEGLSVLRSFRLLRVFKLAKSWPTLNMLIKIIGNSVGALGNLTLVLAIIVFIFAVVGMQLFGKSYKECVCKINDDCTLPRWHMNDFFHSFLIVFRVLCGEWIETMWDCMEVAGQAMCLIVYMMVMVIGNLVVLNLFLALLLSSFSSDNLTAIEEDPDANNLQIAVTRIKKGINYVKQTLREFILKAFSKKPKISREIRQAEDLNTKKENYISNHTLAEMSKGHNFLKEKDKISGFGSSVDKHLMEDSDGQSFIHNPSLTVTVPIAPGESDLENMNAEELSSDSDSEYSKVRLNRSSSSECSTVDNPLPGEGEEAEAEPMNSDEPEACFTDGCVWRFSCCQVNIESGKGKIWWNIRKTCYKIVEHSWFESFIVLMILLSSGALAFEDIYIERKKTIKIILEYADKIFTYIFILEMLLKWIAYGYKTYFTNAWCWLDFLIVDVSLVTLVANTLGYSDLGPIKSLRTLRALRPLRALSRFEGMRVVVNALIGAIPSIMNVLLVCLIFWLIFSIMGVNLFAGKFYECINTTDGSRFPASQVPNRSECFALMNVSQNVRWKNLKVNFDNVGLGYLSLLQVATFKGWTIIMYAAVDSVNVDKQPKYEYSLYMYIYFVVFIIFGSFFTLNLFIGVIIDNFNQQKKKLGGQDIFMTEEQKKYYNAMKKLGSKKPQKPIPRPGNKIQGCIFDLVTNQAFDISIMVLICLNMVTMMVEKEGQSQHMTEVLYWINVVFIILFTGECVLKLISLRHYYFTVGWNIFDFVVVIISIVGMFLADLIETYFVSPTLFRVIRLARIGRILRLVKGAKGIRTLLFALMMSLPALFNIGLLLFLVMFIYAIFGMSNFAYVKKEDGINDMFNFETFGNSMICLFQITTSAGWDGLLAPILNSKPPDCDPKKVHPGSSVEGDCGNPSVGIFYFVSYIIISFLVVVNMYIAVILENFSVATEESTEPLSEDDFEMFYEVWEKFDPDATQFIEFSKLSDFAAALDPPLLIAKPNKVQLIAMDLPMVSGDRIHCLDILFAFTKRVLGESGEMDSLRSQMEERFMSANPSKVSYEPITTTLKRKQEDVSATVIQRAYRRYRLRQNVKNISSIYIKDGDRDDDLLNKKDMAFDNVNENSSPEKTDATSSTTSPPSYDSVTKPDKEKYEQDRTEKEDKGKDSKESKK
Experimental: Chinese Hamster Ovary (CHO) cells stably expressing human Nav 1.7 were cultured according to the manufacturer's standard operating procedure (SOP) and enzymatically lifted into solution following Sophion's standard SOP.
Voltage protocol 1 (VP1): A voltage protocol designed to generate a current voltage relationship and to estimate the half inactivation potential (V1/2) was used. The first voltage protocol was used as quality control and the latter was used later in the experiment (see below).
Voltage protocol 2 (VP2): Two pulse voltage protocol. FIG. 2 depicts a two pulse voltage protocol. The line marked with an asterisk indicates the voltage that was applied to the cell. In the beginning, all channels were in the closed state (V=−120 mV). A depolarization step to V=10 mV (P1) activated all channels and produced the largest possible current. Next, cells were kept at the V1/2 value for 1 s. […] A second stimulation to V=−10 mV activated all channels that were in the closed state (50%). Compound effects were assessed at both P1 and P2. State dependent compounds will show a different degree of inhibition at the two different pulses. This protocol was repeated every 10 s to monitor compound effects on the channel.

[2] = oral dose 10 mg; reference value; cited from earlier work

SMILES	ranking of the compounds in terms of efficacy [1]	Mean % inhibition-closed state [1] [%]	Mean % inhibition-inactivated state [1] [%]	activity at the sodium channel subunit Nav 1.7 [1]	activity at Nav 1.7 compared with bupivacaine ([1]; cilnidipine at 20 mg dose)	activity at Nav 1.7 compared with gabapentin ([1]; cilnidipine at 20 mg dose)	activity at Nav 1.7 relative to amlodipine ([1]; comparable clinical doses (amlodipine 5 mg to cilnidipine 10 mg and amlodipine 10 mg to cilnidipine 20 mg))	higher relative inhibition of Nav 1.7 than amlodipine ([1]; plasma concentrations achieved with 10 mg cilnidipine versus clinically comparable 5 mg amlodipine) [%]	Cmax [2] [ng/mL]
NCC1(CC(=O)O)CCCCC1 [gabapentin]	gabapentin<amlodipine<cilnidipine nifedipine	−5.2	6.3	–	–	–	–	–	–
CCN(CC)CC(=O)Nc1c(C)cccc1C [lidocaine]	–	40.9	89.0	–	–	–	–	–	–
C[S+](C)[O-] [DMSO]	–	−2.7	38.7	–	–	–	–	–	–
CCOC(=O)C1=C(COCCN)NC(C)=C(C(=O)OC)C1c1ccccc1Cl (centres unmarked) [amlodipine]	–	−7.4	7.8	–	–	–	–	–	–
CCCCN1CCCCC1C(=O)Nc1c(C)cccc1C (centres unmarked) [bupivacaine]	–	2.5	20	–	–	–	–	–	–
COCCOC(=O)C1=C(C)NC(C)=C(C(=O)OC/C=C/c2ccccc2)C1c1cccc([N+](=O)[O-])c1 (centres unmarked) [cilnidipine]	gabapentin<amlodipine<cilnidipine nifedipine	−6.7	18.5	clinically meaningful activity	appears to be greater than a sodium channel blocker and local anesthetic, bupivacaine	greater than gabapentin	about 5 ×	9.5	5.9 ± 1.2
